Reference: patent publication US12559504B2, “Benzotriazole derivative” (UBE CORPORATION, priority 2019, dated 2026)

What was measured:
[1] = target: T1, GST fusion human Keap1 (amino acid residue: 325-624) protein (Homo sapiens, UniProt Q14145); experiment: Keap1-Nrf2 binding inhibition test (fluorescence polarization); details: compound concentration of 100 nM; read-out: inhibition rate
T1 construct: GST fusion human Keap1 (amino acid residue: 325-624) protein; purchased Protein tech Ag0779
Protocol: The inhibitory activity of each test compound on the binding between Nrf2 and Keap1 was measured by the fluorescence polarization method. A solution consisting of 20 mM tris-hydrochloride pH7.5 (NIPPON GENE CO., LTD., REF: 318-90225), 150 mM NaCl [FUJIFILM Wako Pure Chemical. Corporation, REF: 191-01665], 0.05% Tween 20 (BioRAD, REF: 161-0781), and 5 mM DTT (FUJIFILM Wako Pure Chemical Corporation, REF: 049-08972) was used as a buffer solution. To a test compound solution (70 μL) adjusted to each concentration with 10% DMSO (FUJIFILM Wako Pure Chemical Corporation, REF: 043-07216) was added a buffer solution (350 μL) comprising 6 nM FITC-labeled Nrf2 peptide (FITC-Ahx-LDEETGEFL-NH2, Invitrogen) and 0.2 mg/mL of BSA (FUJIFILM Wako Pure Chemical Corporation, REF: 017-22231). Each 120 μL of the resulting mixture was dispensed into a black 96 well plate, and a buffer solution (80 μL) comprising 2.5 nM GST fusion human Keap1 (amino acid residue: 325-624) protein (Protein tech, REF: Ag0779) was added thereto. A Keap1-free buffer solution was added to some wells to prepare negative controls. Meanwhile, compound-free wells were used as positive controls. The plate was incubated at room temperature for 30 minutes, and each fluorescence polarization at excitation wavelength of 482 nm and fluorescence wavelength of 530 nm was measured by using a plate reader Clariostar (BMG Labtech). The fluorescence polarization of the negative control was set to be 100% inhibition, fluorescence polarization of the positive control was set to be 0% inhibition, and the inhibition rate of each test compound at 100 nM was calculated by using the following equation. Inhibition rate (%)=100−((Fluorescence polarization when test compound was added−Fluorescence polarization of negative control)/(Fluorescence polarization of positive control−Fluorescence polarization of negative control))×100

[2] = tested on: NQO1; experiment: NQO1 expression induction test in mouse kidney (single administration); format: in vivo; details: BALB/c mouse kidney, 6 hours after administration, ratio to control group; for fold induction at 10 mg/kg: Mus musculus, po, 6 h
Protocol: Each test compound solution for administration was prepared by dissolving or suspending each test compound into a 0.5 w/v % aqueous solution of methylcellulose (0.5% MC) (manufactured by Wako Pure Chemical Industries, Ltd.).
Each prepared test compound was orally administered to a BALB/c mouse (female, provided by Charles River Laboratories Japan, Inc.). Non-treated group was used as a control group. After 6 hours from the administration, each mouse was anesthetized with isoflurane, and euthanized with bloodletting by incising a lower aorta. Immediately, the left kidney was excised, cut into small pieces, and then the cut kidney pieces were transferred to RNA later (Thermo Fisher Scientific).
Then, mRNA was extracted from the collected kidney pieces by using NucleoSpin (registered trademark) RNA Kit (Takara Bio Inc.), each concentration was quantified by FlexStation3 (Molecular Devices), and then the concentration was adjusted to a constant concentration. A reverse transcription synthesis of cDNA was carried out from the mRNA with the constant concentration by using PrimeScript™ RT reagent Kit with gDNA Eraser and PCR Thermal Cycler (Takara Bio Inc.). Then, in addition to the resulting cDNA, SYBR (registered trademark) Premix Ex Taq™ II and NQO1, GAPDH primer (Takara Bio Inc.) were used to carry out Real-time PCR by PCR Thermal Cycler Dice Real time (Takara Bio Inc.), and the NQO1 expression was quantified by using the GAPDH expression as the reference.
In order to evaluate the NQO1 expression induction in each group, the NQO1 expression induction ratio was calculated by using the following equation. (NQO1 expression induction ratio)=(Average NQO1 expression in test compound administered group)[…](Average NQO1 expression in control group)

[3] = Metabolism test using human liver microsome fractions; format: in vitro ADME; details: human liver microsomes, test compound 10 μmol/L, NADPH and UDP-glucuronic acid, 37° C.
Protocol: A reaction composition solution (comprising NADPH Regenerating System, Solution A (manufactured by Corning Inc., REF. 451220) (50 μL), NADPH Regenerating System, Solution B (manufactured by Corning Inc., REF. 451200) (10 μL), 250 mM UDP-glucuronic acid (40 μL), UGT Reaction Mix Solution B (manufactured by Corning Inc., REF. 451320) (200 μL), and distilled water (640 μL)) in which human liver microsomes (manufactured by Xenotech, Cat. No. H610) or monkey liver microsomes (manufactured by Xenotech, Cat. No. P2000) (corresponding to 1 mg of protein) were suspended was prepared. After the solution was incubated at 37° C. for 5 minutes, each test compound dissolved into DMSO (manufactured by FUJIFILM Wako Pure Chemical Corporation, Code No. 043-07216) was added to the solution so that the final concentration was set to be 10 μmol/L, and a reaction was initiated. After 0, 5, 10, 15, 20, and 30 minute(s) from the initiation of the metabolism reaction, 100 μL of the reaction solution was taken out of the reaction system, and added to 200 μL of acetonitrile to stop the reaction. After the reaction was completed, the reaction solution was subjected to a work-up such as deproteinization, and then subjected to an UV-HPLC analysis to carry out the following analysis.
The peak area of each test compound was calculated by LabSolution software (Shimadzu Corporation), and the residual ratio (%) at each culture time of test material was calculated by the following equation. Residual ratio (%)=Peak area at each culture time[…]Peak area at 0 (initial time)
Next, the residual amount (nmol/mg/mL) at each culture time of test material was calculated by the following equation. Residual amount (nmol/mg/mL)=Initial concentration of reaction solution (10 nmol/mg/mL)×residual ratio÷100
Finally, a graph in which the reaction time was plotted at horizontal axis and the residual amount was plotted at longitudinal axis was prepared on Excel, and the inclination was calculated as the elimination rate (pmol/min/mg-P) within the time range in which the graph was deemed linear.

T1 sequence (Q14145 325-624): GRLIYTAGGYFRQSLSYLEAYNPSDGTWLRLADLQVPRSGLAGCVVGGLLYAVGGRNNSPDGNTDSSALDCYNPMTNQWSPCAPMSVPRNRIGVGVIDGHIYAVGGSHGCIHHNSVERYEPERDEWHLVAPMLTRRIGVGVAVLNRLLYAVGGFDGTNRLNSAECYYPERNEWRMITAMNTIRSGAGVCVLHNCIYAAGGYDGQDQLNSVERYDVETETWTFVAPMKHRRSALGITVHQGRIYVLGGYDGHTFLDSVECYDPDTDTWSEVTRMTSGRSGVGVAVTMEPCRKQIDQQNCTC

For `CC[C@@H]1CN(Cc2cc(C(c3ccc4c(nnn4C)c3C)C(C)(C)C(=O)O)ccc2C)Cc2cc3c(cc2O1)OC(F)(F)O3` (single isomer, unassigned) [Example 29], the inhibition at 0.1 µM [1] was ≥ 50%, the fold induction at 10 mg/kg [2] was > 6 and the Human metabolic rate [3] was “A (metabolic rate<100 pmol/min/mg protein)”.

With `CC[C@@H]1CN(Cc2cc(C(c3ccc4c(nnn4C)c3C)C(C)(C)C(=O)O)ccc2C)Cc2cc3c(cc2O1)OC(F)(F)O3` (single isomer, unassigned) [Example 30] the Human metabolic rate [3] was “E (metabolic rate≥250 pmol/min/mg protein)”.

For `CC[C@@H]1CN(Cc2cc(C(c3ccc4c(nnn4C)c3C)C(C)(C)C(=O)O)ccc2C)Cc2cc3c(cc2O1)CCC3` (single isomer, unassigned) [Example 31], the inhibition at 0.1 µM [1] was ≥ 50%, the fold induction at 10 mg/kg [2] was 3 to 6 and the Human metabolic rate [3] was “B (100≤metabolic rate<150 pmol/min/mg protein)”.

In the case of `CC[C@@H]1CN(Cc2cc(C(c3ccc4c(nnn4C)c3C)C(C)(C)C(=O)O)ccc2C)Cc2cc3c(cc2O1)CCC3` (single isomer, unassigned) [Example 32], the Human metabolic rate [3] is reported as “D (200≤metabolic rate<250 pmol/min/me protein)”.

In the case of `CC[C@@H]1CN(Cc2cc(C(c3ccc4c(nnn4C)c3C)C(C)(C)C(=O)O)ccc2C)Cc2cc3c(cc2O1)CCCC3` (single isomer, unassigned) [Example 33], the inhibition at 0.1 µM [1] is reported as ≥ 50%, the fold induction at 10 mg/kg [2] is reported as 3 to 6 and the Human metabolic rate [3] is reported as “A (metabolic rate<100 pmol/min/mg protein)”.

In the case of `CC[C@@H]1CN(Cc2cc(C(c3ccc4c(nnn4C)c3C)C(C)(C)C(=O)O)ccc2C)Cc2cc3c(cc2O1)CCCC3` (single isomer, unassigned) [Example 34], the Human metabolic rate [3] is reported as “C (150≤metabolic rate<200 pmol/min/mg protein)”.

With `CC[C@@H]1CN(Cc2cc(C(c3ccc4c(nnn4C)c3C)C(C)(C)C(=O)O)ccc2C)Cc2ccc3c(c2O1)CCC3` (single isomer, unassigned) [Example 35] the inhibition at 0.1 µM [1] was ≥ 50%, the fold induction at 10 mg/kg [2] was > 6 and the Human metabolic rate [3] was “B (100≤metabolic rate<150 pmol/min/mg protein)”.

With `CC[C@@H]1CN(Cc2cc(C(c3ccc4c(nnn4C)c3C)C(C)(C)C(=O)O)ccc2C)Cc2ccc3c(c2O1)CCC3` (single isomer, unassigned) [Example 36] the Human metabolic rate [3] was “C (150≤metabolic rate<200 pmol/min/mg protein)”.

With `CC[C@@H]1CN(Cc2cc(C(c3ccc4c(nnn4C)c3C)C(C)(C)C(=O)O)ccc2C)Cc2nc3ccccc3cc2O1` (single isomer, unassigned) [Example 37] the inhibition at 0.1 µM [1] was ≥ 50%, the fold induction at 10 mg/kg [2] was > 6 and the Human metabolic rate [3] was “A (metabolic rate<100 pmol/min/mg protein)”.

For `CC[C@@H]1CN(Cc2cc(C(c3ccc4c(nnn4C)c3C)C(C)(C)C(=O)O)ccc2C)Cc2nc3ccccc3cc2O1` (single isomer, unassigned) [Example 38], the Human metabolic rate [3] was “E (metabolic rate≥250 pmol/min/mg protein)”.

In the case of `CC[C@@H]1CN(Cc2cc(C(c3ccc4c(nnn4C)c3C)C(C)(C)C(=O)O)ccc2C)Cc2cc3cccnc3cc2O1` (single isomer, unassigned) [Example 40], the Human metabolic rate [3] is reported as “E (metabolic rate≥250 pmol/min/mg protein)”.

In the case of `CC[C@@H]1CN(Cc2cc(C(c3ccc4c(nnn4C)c3C)C(C)(C)C(=O)O)ccc2C)Cc2cc3ncccc3cc2O1` (single isomer, unassigned) [Example 42], the Human metabolic rate [3] is reported as “E (metabolic rate≥250 pmol/min/mg protein)”.

In the case of `CC[C@@H]1CN(Cc2cc(C(c3ccc4c(nnn4C)c3C)C(C)(C)C(=O)O)ccc2C)Cc2c(ccc3cn[nH]c23)O1` (single isomer, unassigned) [Example 44], the Human metabolic rate [3] is reported as “E (metabolic rate≥250 pmol/min/mg protein)”.

In the case of `CC[C@@H]1CN(Cc2cc(C(c3ccc4c(nnn4C)c3C)C(C)(C)C(=O)O)ccc2C)Cc2ncc3ccccc3c2O1` (single isomer, unassigned) [Example 46], the Human metabolic rate [3] is reported as “E (metabolic rate≥250 pmol/min/mg protein)”.

With `Cc1ccc(C(c2ccc3c(nnn3C)c2C)C(C)(C)C(=O)O)cc1CN1Cc2cc3ncccc3cc2OC2(CC2)C1` (single isomer, unassigned) [Example 86, 3-(3-((3′H-spiro[cyclopropane-1,2′-[1,4]oxazepino[7,6-g]quinoline]-4′ (5′H)-yl)methyl)-4-methylphenyl)-3-(1,4-dimethyl-1H-benzo[d][1,2,3]triazol-5-yl)-2,2-dimethylpropanoic Acid] the Human metabolic rate [3] was “E (metabolic rate≥250 pmol/min/mg protein)”.

For `CC[C@@H]1CN(Cc2cc(C(c3ccc4c(nnn4C)c3C)C3(C(=O)O)CCC3)ccc2C)Cc2cc3ncccc3cc2O1` (single isomer, unassigned) [Example 88], the Human metabolic rate [3] was “E (metabolic rate≥250 pmol/min/mg protein)”.

With `CC[C@H]1CN(Cc2cc(C(c3ccc4c(nnn4C)c3C)C(C)(C)C(=O)O)ccc2C)Cc2ncc3ccccc3c2O1` (single isomer, unassigned) [Example 90] the Human metabolic rate [3] was “C (150≤metabolic rate<200 pmol/min/mg protein)”.

For `CC[C@@H]1CN(Cc2cc(C(c3ccc4c(nnn4C)c3C)C(C)(C)C(=O)O)ccc2C)Cc2ccccc2O1` (single isomer, unassigned) [Example C2, reference compound], the Human metabolic rate [3] was “E (metabolic rate≥250 pmol/min/mg protein)”.

With `CC[C@H]1CN(Cc2cc(C(c3ccc4c(nnn4C)c3C)C(C)(C)C(=O)O)ccc2C)Cc2cc3ncccc3cc2O1` (single isomer, unassigned; diastereomer 1) [Example 57-(c)] the inhibition at 0.1 µM [1] was ≥ 50% and the Human metabolic rate [3] was “C (150≤metabolic rate<200 pmol/min/mg protein)”.

In the case of `CCCC1CN(Cc2cc(C(c3ccc4c(nnn4C)c3C)C(C)(C)C(=O)O)ccc2C)Cc2cc3ncccc3cc2O1` (centres unmarked) [Example 78-(b), 3-(1,4-dimethyl-1H-benzo[d][1,2,3]triazol-5-yl)-2,2-dimethyl-3-(4-methyl-3-((2-propyl-2,3-dihydro-[1,4]oxazepino[7,6-g]quinolin-4 (5H)-yl)methyl)phenyl)propanoic Acid], the “NQO1 expression induction activity” value ([2]; Dose 20 mg/kg, oral, 20 mg/kg) is reported as “B (3<NQO1 expression induction ratio≤6)” and the Human metabolic rate [3] is reported as “B (100≤metabolic rate<150 pmol/min/mg protein)”.
